Test system: calcium-activated chloride channel (CaCC)
Test: YFP fluorescence plate reader iodide influx assay in HT-29 cells (ATP/carbachol)
Assay type: cell-based, human
Conditions: semi-quantitative
Experimental: Screening was performed using a customized screening system (BECKMAN COULTER, Inc., Indianapolis, Ind.) consisting of the SAGIAN Core system integrated with SAMI software, and equipped with an ORCA arm for labware transport, a 96-channel head BIOMEK FX, CO2 incubator, plate washer, bar code reader, delidding station, and two FLUOstar OPTIMA fluorescence plate readers (BMG Labtechnologies, Durham, N.C.), each equipped with syringe pumps and custom excitation/emission filters (500/544 nm; CHROMA, Brattleboro, Vt.).
HT-29 cells expressing YFP-H148Q/I152L were plated in 96-well plates at 70% confluence. Plates were incubated overnight at 37° C., 5% CO2 and then the growth medium was replaced with fresh growth medium. […] YFP fluorescence was measured 1 s before and for 30 s after addition of a PBS-iodide solution (PBS that has 100 mM chloride replaced by iodide) containing carbachol and ATP (100 μM each). Each 96-well plate contained ‘positive’ controls (DMSO vehicle without agonists or test compounds) and ‘negative’ controls (DMSO vehicle with agonists but without test compounds). In some experiments solutions included (individually or in combination): carbachol, ATP, or histamine (at 50, 100, 150 or 200 μM), calcimycin (10 μM), thapsigargin (2 μM) and CFTRinh-172 (20 μM).
Iodide influx (d[I^−]/dt at t=0) was computed from fluorescence time course data by single exponential regression, as described (Ma et al., J. Clin. Invest. 110:1651-8 (2002)). Percentage inhibition was computed as: percentage inhibition=100×(Slopenegative control−Slopetest compound)/(Slopenegative control−Slopepositive control).

Compound	% inhibition at 25 μM (class A aminothiophenes) [%]	% inhibition at 25 μM (class B aminothiazoles) [%]
Cc1ccccc1C(=O)Nc1sc2c(c1C(=O)O)CCC(C(C)(C)C)C2 (centres unmarked) [CaCCinh-A02, 6-tert-butyl-2-(2-methylbenzamido)-4,5,6,7-tetrahydrobenzo[b]thiophene-3-carboxylic acid]	95	–
CC(C)(C)C1CCc2c(sc(NC(=O)c3cccc(Cl)c3)c2C(=O)O)C1 (centres unmarked) [CaCCinh-A03, 6-tert-butyl-2-(3-chlorobenzamido)-4,5,6,7-tetrahydrobenzo[b]thiophene-3-carboxylic acid]	50	–
CC(C)(C)C1CCc2c(sc(NC(=O)c3ccccc3)c2C(=O)O)C1 (centres unmarked) [CaCCinh-A04, 2-benzamido-6-tert-butyl-4,5,6,7-tetrahydrobenzo[b]thiophene-3-carboxylic acid]	85	–
CC(C)(C)C1CCc2c(sc(NC(=O)c3ccccc3Cl)c2C(=O)O)C1 (centres unmarked) [CaCCinh-A05, 6-tert-butyl-2-(2-chlorobenzamido)-4,5,6,7-tetrahydrobenzo[b]thiophene-3-carboxylic acid]	75	–
CCOC(=O)c1c(NC(=O)CCC(=O)O)sc2c1CCC(C(C)(C)C)C2 (centres unmarked) [CaCCinh-A06, 4-(6-tert-butyl-3-(ethoxycarbonyl)-4,5,6,7-tetrahydrobenzo[b]thiophen-2-ylamino)-4-oxobutanoic acid]	75	–
CCOC(=O)c1c(NC(=O)/C=C/C(=O)O)sc2c1CCC(C(C)(C)C)C2 (centres unmarked) [CaCCinh-A07, (E)-4-(6-tert-butyl-3-(ethoxycarbonyl)-4,5,6,7-tetrahydrobenzo[b]thiophen-2-ylamino)-4-oxobut-2-enoic acid]	98	–
CCOC(=O)c1c(NC(=O)C2CCCCC2C(=O)O)sc2c1CCC(C(C)(C)C)C2 (centres unmarked) [CaCCinh-A08, 2-(6-tert-butyl-3-(ethoxycarbonyl)-4,5,6,7-tetrahydrobenzo[b]thiophen-2-ylcarbamoyl)cyclohexanecarboxylic acid]	80	–
COC(=O)c1c(NC(=O)CCCC(=O)O)sc2c1CCC(C(C)(C)C)C2 (centres unmarked) [CaCCinh-A09, 5-(6-tert-butyl-3-(methoxycarbonyl)-4,5,6,7-tetrahydrobenzo[b]thiophen-2-ylamino)-5-oxopentanoic acid]	45	–
CCOC(=O)c1c(NC(=O)C2CCCCC2C(=O)O)sc2c1CCC(C(C)(C)CC)C2 (centres unmarked) [CaCCinh-A10, 2-(3-(ethoxycarbonyl)-6-tert-pentyl-4,5,6,7-tetrahydrobenzo[b]thiophen-2-ylcarbamoyl)cyclohexanecarboxylic acid]	75	–
COC(=O)c1c(NC(=O)CCC(=O)O)sc2c1CCC(C(C)(C)C)C2 (centres unmarked) [CaCCinh-A11, 4-(6-tert-butyl-3-(methoxycarbonyl)-4,5,6,7-tetrahydrobenzo[b]thiophen-2-ylamino)-4-oxobutanoic acid]	81	–
Cc1ccc(C(=O)Nc2sc3c(c2C(=O)O)CCCCC3)cc1 [CaCCinh-A12, 2-(4-methylbenzamido)-5,6,7,8-tetrahydro-4H-cyclohepta[b]thiophene-3-carboxylic acid]	15	–
O=C(Nc1sc2c(c1C(=O)O)CCCCC2)c1ccccc1 [CaCCinh-A13, 2-benzamido-5,6,7,8-tetrahydro-4H-cyclohepta[b]thiophene-3-carboxylic acid]	27	–
COc1cccc(C(=O)Nc2sc3c(c2C(=O)O)CCCCC3)c1 [CaCCinh-A15, 2-(3-methoxybenzamido)-5,6,7,8-tetrahydro-4H-cyclohepta[b]thiophene-3-carboxylic acid]	20	–
Cc1cccc(NC(=O)c2c(NC(=O)CCC(=O)O)sc3c2CCC(C(C)(C)C)C3)c1 (centres unmarked) [CaCCinh-A16, 4-(6-tert-butyl-3-(m-tolylcarbamoyl)-4,5,6,7-tetrahydrobenzo[b]thiophen-2-ylamino)-4-oxobutanoic acid]	42	–
Cc1cccc(C(=O)Nc2sc3c(c2C(=O)O)CCCC3)c1 [CaCCinh-A17, 2-(3-methylbenzamido)-4,5,6,7-tetrahydrobenzo[b]thiophene-3-carboxylic acid]	07	–
COc1ccc(NC(=O)c2c(NC(=O)CCC(=O)O)sc3c2CCC(C(C)(C)C)C3)cc1 (centres unmarked) [CaCCinh-A18, 4-(6-tert-butyl-3-(4-methoxyphenylcarbamoyl)-4,5,6,7-tetrahydrobenzo[b]thiophen-2-ylamino)-4-oxobutanoic acid]	35	–
Cc1ccc(-c2nc(Nc3ccc(C)c(Cl)c3)sc2CC(=O)O)cc1 [CaCCinh-B02, 2-(2-(3-chloro-4-methylphenylamino)-4-p-tolylthiazol-5-yl)acetic acid]	–	40
Cc1ccc(-c2nc(Nc3cccc(Br)c3)sc2CC(=O)O)cc1 [CaCCinh-B03, 2-(2-(3-bromophenylamino)-4-p-tolylthiazol-5-yl)acetic acid]	–	60
Cc1ccc(-c2nc(Nc3ccc(Cl)cc3Cl)sc2CC(=O)O)cc1 [CaCCinh-B04, 2-(2-(2,4-dichlorophenylamino)-4-p-tolylthiazol-5-yl)acetic acid]	–	65
Cc1ccc(-c2nc(Nc3cccc(C(F)(F)F)c3)sc2CC(=O)O)cc1 [CaCCinh-B05, 2-(4-p-tolyl-2-(3-(trifluoromethyl)phenylamino)thiazol-5-yl)acetic acid]	–	60
CCCc1sc(Nc2ccc(C(=O)O)cc2)nc1-c1ccc(C)cc1C [CaCCinh-B06, 4-(4-(2,4-dimethylphenyl)-5-propylthiazol-2-ylamino)benzoic acid]	–	100
Cc1ccc(-c2nc(Nc3ccc(Br)cc3)sc2CC(=O)O)c(C)c1 [CaCCinh-B07, 2-(2-(4-bromophenylamino)-4-(2,4-dimethylphenyl)thiazol-5-yl)acetic acid]	–	70
Cc1ccc(-c2nc(Nc3cccc(C(F)(F)F)c3)sc2CC(=O)O)c(C)c1 [CaCCinh-B08, 2-(4-(2,4-dimethylphenyl)-2-(3-(trifluoromethyl)phenylamino)thiazol-5-yl)acetic acid]	–	75
CC(C)Cc1ccc(Nc2nc(-c3ccc(Oc4ccccc4)cc3)cs2)cc1 [CaCCinh-B09, N-(4-isobutylphenyl)-4-(4-phenoxyphenyl)thiazol-2-amine]	–	65
FC(F)(F)c1cccc(-c2csc(Nc3ccc(C4CCCCC4)cc3)n2)c1 [CaCCinh-B10, N-(4-cyclohexylphenyl)-4-(3-(trifluoromethyl)phenyl)thiazol-2-amine]	–	55
CCOc1ccc(Nc2nc(-c3ccc(C)cc3)c(CC(=O)O)s2)cc1 [CaCCinh-B11, 2-(2-(4-ethoxyphenylamino)-4-p-tolylthiazol-5-yl)acetic acid]	–	65
Cc1ccc(-c2nc(NC(=O)c3cccc(C)c3)sc2-c2ccccc2)cc1 [CaCCinh-B12, 3-methyl-N-(5-phenyl-4-p-tolylthiazol-2-yl)benzamide]	–	03
CCNc1nc(-c2ccc(C)cc2)cs1 [CaCCinh-B13, N-ethyl-4-p-tolylthiazol-2-amine]	–	20
COc1ccc(Nc2nc(-c3ccc(OC)cc3)c(CCC(=O)O)s2)cc1 [CaCCinh-B14, 3-(4-(4-methoxyphenyl)-2-(4-methoxyphenylamino)thiazol-5-yl)propanoic acid]	–	18

Source: patent publication US9789095B2, “Inhibitors of calcium-activated chloride channels” (The Regents of the University of California, priority 2007, dated 2017)
